ChEMBL document CHEMBL1201862, “PubChem BioAssay data set” (2004)
The source made the active and inactive calls.

Legend:
Melanocortin receptor 4 [1] = target: T1, Melanocortin receptor 4 (Homo sapiens, UniProt P32245); assay type: functional, cell-based;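 note: Cell-based assay with luminescence read-out, confirmatory dose-response testing for agonist activity of biased ligands at MC4R; human U2OS cells with tagged receptor and beta-arrestin; potency of agonists that increase receptor coupling to beta-arrestin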
T1 sequence (P32245 whole entry): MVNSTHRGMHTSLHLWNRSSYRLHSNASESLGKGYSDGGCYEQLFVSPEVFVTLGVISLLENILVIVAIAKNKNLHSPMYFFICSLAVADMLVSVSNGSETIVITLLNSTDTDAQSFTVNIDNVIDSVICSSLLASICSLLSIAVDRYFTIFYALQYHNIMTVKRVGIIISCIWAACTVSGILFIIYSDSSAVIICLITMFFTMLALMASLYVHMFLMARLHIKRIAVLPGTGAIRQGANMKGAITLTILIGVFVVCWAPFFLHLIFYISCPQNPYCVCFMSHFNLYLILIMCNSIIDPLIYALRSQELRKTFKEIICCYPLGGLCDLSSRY

[2] = microbe, parasite or virus in culture; assay type: functional; conditions: Mycobacterium tuberculosis
Protein Wnt-3a = Protein Wnt-3a (Mus musculus, UniProt P27467); test: Wnt3a-driven reporter signaling inhibition, dose response, selectivity assay for Gli-SUFU antagonist project, Wnt-LIGHT cells, luminescence (AID 651570); assay type: functional; conditions: read-out: IC50_Mean;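 note: Wnt-LIGHT reporter cells stimulated with conditioned medium from Wnt3a-producing cells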
Sequence of Protein Wnt-3a (P27467 whole entry, the tested form may be a part): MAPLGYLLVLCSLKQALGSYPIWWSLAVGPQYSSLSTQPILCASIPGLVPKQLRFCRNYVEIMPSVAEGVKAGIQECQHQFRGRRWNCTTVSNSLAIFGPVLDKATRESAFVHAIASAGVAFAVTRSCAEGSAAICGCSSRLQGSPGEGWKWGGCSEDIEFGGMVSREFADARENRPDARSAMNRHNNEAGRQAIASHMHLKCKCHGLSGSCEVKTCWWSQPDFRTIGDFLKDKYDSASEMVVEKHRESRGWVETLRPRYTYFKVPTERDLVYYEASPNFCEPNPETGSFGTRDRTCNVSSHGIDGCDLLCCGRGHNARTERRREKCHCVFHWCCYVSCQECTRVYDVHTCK

[3] = target: T2, Tyrosine-protein phosphatase non-receptor type 22 (Homo sapiens, UniProt Q9Y2R2); test: LYP phosphatase inhibition for selectivity, dose response, selectivity assay for LMPTP inhibitor project, biochemical, fluorescence, LYP catalytic domain (AID 652006); assay type: functional; conditions: read-out: IC50_Mean
T2 sequence (Q9Y2R2 whole entry): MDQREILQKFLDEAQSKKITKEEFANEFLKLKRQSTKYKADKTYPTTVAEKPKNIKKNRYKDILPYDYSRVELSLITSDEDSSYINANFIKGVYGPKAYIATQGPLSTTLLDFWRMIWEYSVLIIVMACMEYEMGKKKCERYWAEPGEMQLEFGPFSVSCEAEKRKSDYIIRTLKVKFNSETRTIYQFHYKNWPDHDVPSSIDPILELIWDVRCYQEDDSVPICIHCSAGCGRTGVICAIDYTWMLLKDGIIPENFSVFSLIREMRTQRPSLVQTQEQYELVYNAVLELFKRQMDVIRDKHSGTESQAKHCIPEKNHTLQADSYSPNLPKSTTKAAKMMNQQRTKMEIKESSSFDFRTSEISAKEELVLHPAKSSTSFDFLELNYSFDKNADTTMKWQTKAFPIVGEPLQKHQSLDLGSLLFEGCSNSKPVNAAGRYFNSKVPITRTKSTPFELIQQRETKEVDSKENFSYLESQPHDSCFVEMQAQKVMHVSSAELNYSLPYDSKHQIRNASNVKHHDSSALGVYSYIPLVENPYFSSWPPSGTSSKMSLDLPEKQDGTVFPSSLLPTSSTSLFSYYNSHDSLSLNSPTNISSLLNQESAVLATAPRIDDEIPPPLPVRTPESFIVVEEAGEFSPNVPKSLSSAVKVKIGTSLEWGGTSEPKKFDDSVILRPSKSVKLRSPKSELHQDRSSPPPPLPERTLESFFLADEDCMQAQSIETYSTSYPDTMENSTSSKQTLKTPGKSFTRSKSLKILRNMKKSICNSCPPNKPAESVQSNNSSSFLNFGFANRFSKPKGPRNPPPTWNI

[4] = target: T3, Low molecular weight phosphotyrosine protein phosphatase (Homo sapiens, UniProt P24666); assay type: functional; conditions: read-out: IC50_Mean
T3 sequence (P24666 whole entry): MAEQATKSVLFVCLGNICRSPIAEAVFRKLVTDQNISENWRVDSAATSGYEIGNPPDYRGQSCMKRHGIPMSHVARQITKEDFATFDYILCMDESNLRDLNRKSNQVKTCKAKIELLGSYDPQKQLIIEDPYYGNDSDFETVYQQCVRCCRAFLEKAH

Cytochrome P450 2C9 = Cytochrome P450 2C9 (Homo sapiens, UniProt P11712)
Sequence of Cytochrome P450 2C9 (P11712 whole entry): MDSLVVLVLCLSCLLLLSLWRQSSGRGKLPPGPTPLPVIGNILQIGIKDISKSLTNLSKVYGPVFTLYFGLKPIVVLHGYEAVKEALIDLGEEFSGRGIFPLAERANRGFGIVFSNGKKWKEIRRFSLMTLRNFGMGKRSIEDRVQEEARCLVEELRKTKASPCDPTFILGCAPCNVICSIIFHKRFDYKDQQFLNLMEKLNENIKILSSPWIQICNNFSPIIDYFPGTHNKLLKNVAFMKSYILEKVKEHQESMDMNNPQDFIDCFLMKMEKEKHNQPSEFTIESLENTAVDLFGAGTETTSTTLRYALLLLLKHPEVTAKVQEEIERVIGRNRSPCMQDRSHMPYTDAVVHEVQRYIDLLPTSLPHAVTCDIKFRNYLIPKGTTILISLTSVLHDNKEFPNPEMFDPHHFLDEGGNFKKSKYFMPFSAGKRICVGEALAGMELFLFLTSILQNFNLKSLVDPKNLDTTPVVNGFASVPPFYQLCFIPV

Cytochrome P450 2C19 = Cytochrome P450 2C19 (Homo sapiens, UniProt P33261); test: Cytochrome panel assay with activity outcomes. Panel member name: p450-cyp2c19 Compounds with AC50 equal or less than 10 uM are considered active; assay type: functional; conditions: read-out: AC50
Sequence of Cytochrome P450 2C19 (P33261 whole entry): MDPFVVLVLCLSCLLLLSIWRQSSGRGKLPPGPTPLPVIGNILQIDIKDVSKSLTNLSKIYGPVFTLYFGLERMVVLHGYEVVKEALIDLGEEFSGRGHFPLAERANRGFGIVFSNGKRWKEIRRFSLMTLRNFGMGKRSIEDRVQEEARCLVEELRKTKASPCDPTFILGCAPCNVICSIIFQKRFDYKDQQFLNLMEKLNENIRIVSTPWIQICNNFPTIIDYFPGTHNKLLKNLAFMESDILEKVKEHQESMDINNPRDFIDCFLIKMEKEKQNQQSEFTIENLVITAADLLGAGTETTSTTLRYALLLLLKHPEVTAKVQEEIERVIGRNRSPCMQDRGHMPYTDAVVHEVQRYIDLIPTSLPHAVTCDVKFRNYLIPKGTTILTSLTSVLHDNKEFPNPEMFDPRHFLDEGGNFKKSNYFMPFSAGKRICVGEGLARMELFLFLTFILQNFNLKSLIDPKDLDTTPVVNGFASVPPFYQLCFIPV

[5] = target: T3, Low molecular weight phosphotyrosine protein phosphatase; assay type: functional; conditions: read-out: IC50_Mean; remark: listed apart in the source
[6] = target: T4, Carboxy-terminal domain RNA polymerase II polypeptide A small phosphatase 1 (Homo sapiens, UniProt Q9GZU7); test: inhibitors of CTDSP1, concentration-response testing, biochemical assay, absorbance-based, actives from ultra-high-throughput screening (AID 540297); assay type: functional
T4 sequence (Q9GZU7 whole entry): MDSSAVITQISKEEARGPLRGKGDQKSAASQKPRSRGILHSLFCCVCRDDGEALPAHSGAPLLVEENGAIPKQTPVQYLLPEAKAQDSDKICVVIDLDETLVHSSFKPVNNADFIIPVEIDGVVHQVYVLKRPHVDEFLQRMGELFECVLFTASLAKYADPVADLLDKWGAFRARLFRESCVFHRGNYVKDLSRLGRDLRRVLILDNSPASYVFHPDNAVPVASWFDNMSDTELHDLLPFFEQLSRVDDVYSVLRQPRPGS

Prothrombin = Prothrombin (Bos taurus, UniProt P00735); test: thrombin inhibition, dose response, biochemical, fluorescence polarization, uHTS hits (AID 602369); assay type: functional
[7] = tested on: Streptococcus sp. 'group A'; test: growth inhibition of control SK(-) GAS strain, dose response, counter-screen for streptokinase expression inhibitor project, luminescence, kanamycin, BacTiterGlo, confirmation (AID 1900); assay type: functional, organism-based
[8] = target: 26S proteasome non-ATPase regulatory subunit 14 (Homo sapiens, UniProt O00487); test: inhibition of proteasome subunit RPN11 – biochemical, fluorescence polarization, uHTS hits, confirmation (AID 602368); assay type: functional
[9] = target: 72 kDa type IV collagenase (Homo sapiens, UniProt P08253); test: Dose Response validation of uHTS RPN11 inhibitor hits using a MMP-2 Fluorescence assay.; assay type: functional
Streptococcus = test: Group A Streptococcus viability loss, dose response, counter-screen for streptokinase expression inhibitor project, luminescence, BacTiterGlo (AID 1915); assay type: functional, organism-based;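 note: potency for reduction of bacterial viability or growth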
[10] = target: Potassium voltage-gated channel subfamily KQT member 2 (Rattus norvegicus, UniProt O88943); test: KCNQ2 potassium channel inhibitors, dose response, cell-based, automated electrophysiology, set II, rat KCNQ2 (AID 588637); assay type: functional
Sequence of Potassium voltage-gated channel subfamily KQT member 2 (O88943 whole entry): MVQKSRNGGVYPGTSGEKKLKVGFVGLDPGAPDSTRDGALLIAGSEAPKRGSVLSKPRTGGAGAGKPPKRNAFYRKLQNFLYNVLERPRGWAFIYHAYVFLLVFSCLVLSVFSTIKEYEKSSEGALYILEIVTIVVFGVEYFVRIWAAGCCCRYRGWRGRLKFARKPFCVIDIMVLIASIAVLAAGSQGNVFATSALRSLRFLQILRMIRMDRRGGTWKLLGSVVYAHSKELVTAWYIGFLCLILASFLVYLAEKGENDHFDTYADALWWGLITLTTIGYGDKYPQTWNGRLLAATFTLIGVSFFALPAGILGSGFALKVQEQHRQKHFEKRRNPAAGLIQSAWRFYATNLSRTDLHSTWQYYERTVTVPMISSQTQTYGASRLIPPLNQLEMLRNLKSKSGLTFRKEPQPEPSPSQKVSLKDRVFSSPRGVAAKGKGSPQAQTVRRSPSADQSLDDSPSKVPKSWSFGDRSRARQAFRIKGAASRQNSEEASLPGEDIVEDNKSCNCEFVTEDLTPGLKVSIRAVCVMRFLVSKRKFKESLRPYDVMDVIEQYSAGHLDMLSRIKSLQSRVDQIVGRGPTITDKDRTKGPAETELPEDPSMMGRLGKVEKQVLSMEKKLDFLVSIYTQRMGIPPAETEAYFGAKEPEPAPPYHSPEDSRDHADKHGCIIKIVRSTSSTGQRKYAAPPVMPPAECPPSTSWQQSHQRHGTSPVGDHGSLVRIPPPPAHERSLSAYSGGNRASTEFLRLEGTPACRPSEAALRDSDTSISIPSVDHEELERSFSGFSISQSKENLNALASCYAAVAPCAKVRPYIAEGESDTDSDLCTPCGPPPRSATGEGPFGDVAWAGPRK

[11] = target: Ras and Rab interactor 1/Tyrosine-protein kinase ABL1 (Homo sapiens, UniProt P00519+Q13671); assay type: functional;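 note: biochemical TR-FRET dose-response test measuring inhibition of binding between Rin1 and Abl proteins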
[12] = target: T5, DNA dC->dU-editing enzyme APOBEC-3G (Homo sapiens, UniProt Q9HC16); assay type: functional
T5 sequence (Q9HC16 whole entry): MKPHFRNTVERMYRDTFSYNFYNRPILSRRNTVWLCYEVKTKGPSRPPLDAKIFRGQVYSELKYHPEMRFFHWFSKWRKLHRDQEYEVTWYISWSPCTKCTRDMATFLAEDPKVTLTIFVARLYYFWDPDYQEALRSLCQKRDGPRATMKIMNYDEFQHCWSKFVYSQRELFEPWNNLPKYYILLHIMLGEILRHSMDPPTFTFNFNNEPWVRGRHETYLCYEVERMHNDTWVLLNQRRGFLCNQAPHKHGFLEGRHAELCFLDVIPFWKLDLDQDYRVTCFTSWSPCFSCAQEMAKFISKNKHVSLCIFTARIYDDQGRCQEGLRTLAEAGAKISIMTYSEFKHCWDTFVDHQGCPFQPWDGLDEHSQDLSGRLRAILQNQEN

[13] = target: T6, DNA dC->dU-editing enzyme APOBEC-3A (Homo sapiens, UniProt P31941); test: SAR analysis of small molecule inhibitors of APOBEC3A DNA Deaminase via a fluorescence-based single-stranded DNA deaminase assay.; assay type: functional; conditions: read-out: IC50_Mean
T6 sequence (P31941 whole entry): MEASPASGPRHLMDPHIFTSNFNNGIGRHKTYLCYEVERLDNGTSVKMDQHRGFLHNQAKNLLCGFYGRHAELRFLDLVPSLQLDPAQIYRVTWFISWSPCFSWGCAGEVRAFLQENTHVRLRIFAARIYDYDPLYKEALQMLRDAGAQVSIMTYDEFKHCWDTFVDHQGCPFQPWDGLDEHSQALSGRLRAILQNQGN

[14] = target: T5, DNA dC->dU-editing enzyme APOBEC-3G; test: SAR analysis of small molecule inhibitors of APOBEC3G DNA Deaminase via a fluorescence-based single-stranded DNA deaminase assay - Set 2.; assay type: functional; conditions: read-out: IC50_Mean
[15] = target: T6, DNA dC->dU-editing enzyme APOBEC-3A; test: SAR analysis of small molecule inhibitors of APOBEC3A DNA Deaminase via a fluorescence-based single-stranded DNA deaminase assay - Set 2.; assay type: functional; conditions: read-out: IC50_Mean
[16] = target: T6, DNA dC->dU-editing enzyme APOBEC-3A; test: Dose Response confirmation of small molecule APOBEC3A DNA Deaminase Inhibitors via a fluorescence-based single-stranded DNA deaminase assay. [Related pubchem assays (depositor defined):AID493011, AID493024]; assay type: functional
[17] = target: T5, DNA dC->dU-editing enzyme APOBEC-3G; test: APOBEC3G deaminase inhibitors, SAR follow-up, biochemical, fluorescence, single-stranded DNA substrate (AID 602136); assay type: functional; conditions: read-out: IC50_Mean
[18] = target: T7, Mitochondrial peptide methionine sulfoxide reductase (Bos taurus, UniProt P54149); assay type: functional;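 note: absorbance read-out, biochemical high-throughput dose-response screen for MsrA inhibitors, confirmatory; recombinant bovine MsrA coupled to E. coli TrxB with NADPH and selenocystamine; potency is for inhibitors of MsrA activity on DMSO substrate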
T7 sequence (P54149 whole entry): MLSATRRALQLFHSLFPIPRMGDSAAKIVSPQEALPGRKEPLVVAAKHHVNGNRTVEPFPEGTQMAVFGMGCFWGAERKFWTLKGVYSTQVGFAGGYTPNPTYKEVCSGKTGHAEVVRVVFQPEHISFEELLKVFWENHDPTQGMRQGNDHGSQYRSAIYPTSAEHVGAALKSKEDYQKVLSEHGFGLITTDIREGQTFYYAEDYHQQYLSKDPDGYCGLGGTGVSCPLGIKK

Melanocortin receptor 4 [19] = target: T1, Melanocortin receptor 4; test: MC4R antagonist potency on cAMP, dose response, cell-based, TR-FRET, biased antagonists (AID 602298); assay type: functional;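 note: antagonist potency against agonist-stimulated cAMP production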
[20] = nonselective inhibitors of cellular cAMP signaling, dose response, counter-screen for MC4R biased antagonist project, cell-based, TR-FRET cAMP detection (AID 602305); assay type: functional;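 note: U2OS cells stimulated with forskolin near its EC80 as the cAMP inducer; potency is for inhibition of forskolin-stimulated cAMP signaling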
[21] = ARNT/TACC3 interaction disruptors, potency, confirmation, biochemical, AlphaScreen, cherry-picked samples (AID 651703); assay type: functional, Homo sapiens;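 note: His-tagged ARNT PAS-B domain paired with GST-TACC3 E629A dimer coactivator fragment; potency of inhibitors that break up the complex and lower AlphaScreen signal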
[22] = target: T8, Apoptotic protease-activating factor 1 (Homo sapiens, UniProt O14727); test: SAR analysis of small molecule Activators of Apaf-1 in a Fluorescent assay.; assay type: functional; conditions: read-out: EC50_Mean;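 note: caspase-3 cleavage of fluorogenic Rh110 DEVD substrate downstream of apoptosome activation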
T8 sequence (O14727 whole entry): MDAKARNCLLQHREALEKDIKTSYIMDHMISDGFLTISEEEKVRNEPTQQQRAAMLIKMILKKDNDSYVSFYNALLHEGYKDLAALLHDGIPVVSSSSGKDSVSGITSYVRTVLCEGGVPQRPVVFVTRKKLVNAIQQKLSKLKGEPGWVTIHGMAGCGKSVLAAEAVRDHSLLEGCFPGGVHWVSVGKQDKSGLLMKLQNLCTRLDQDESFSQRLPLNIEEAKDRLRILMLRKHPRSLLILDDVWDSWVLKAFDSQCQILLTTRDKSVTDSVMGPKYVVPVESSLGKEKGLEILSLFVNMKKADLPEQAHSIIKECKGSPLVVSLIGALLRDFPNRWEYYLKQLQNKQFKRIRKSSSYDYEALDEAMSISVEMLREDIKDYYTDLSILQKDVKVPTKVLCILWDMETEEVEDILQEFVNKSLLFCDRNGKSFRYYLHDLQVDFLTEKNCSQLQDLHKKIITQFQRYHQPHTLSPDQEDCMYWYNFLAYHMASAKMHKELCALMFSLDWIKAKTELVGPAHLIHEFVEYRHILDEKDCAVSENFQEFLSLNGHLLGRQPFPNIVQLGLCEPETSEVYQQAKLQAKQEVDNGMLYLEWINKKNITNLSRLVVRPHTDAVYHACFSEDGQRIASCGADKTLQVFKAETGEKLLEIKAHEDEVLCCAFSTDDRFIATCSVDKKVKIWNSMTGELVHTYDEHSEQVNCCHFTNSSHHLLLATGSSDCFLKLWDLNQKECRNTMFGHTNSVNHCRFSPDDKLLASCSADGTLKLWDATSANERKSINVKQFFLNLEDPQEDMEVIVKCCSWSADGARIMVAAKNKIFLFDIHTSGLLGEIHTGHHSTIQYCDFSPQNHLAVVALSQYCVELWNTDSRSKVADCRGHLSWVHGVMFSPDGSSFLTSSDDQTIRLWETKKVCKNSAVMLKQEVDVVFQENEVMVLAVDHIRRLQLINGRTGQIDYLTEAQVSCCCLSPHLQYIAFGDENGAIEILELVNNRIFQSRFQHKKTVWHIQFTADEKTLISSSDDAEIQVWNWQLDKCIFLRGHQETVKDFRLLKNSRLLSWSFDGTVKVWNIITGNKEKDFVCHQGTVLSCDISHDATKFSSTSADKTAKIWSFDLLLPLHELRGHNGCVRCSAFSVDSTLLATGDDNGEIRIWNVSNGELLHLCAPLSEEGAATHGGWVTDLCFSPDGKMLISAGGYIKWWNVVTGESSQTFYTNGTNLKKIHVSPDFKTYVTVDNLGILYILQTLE

[23] = target: T9, ATP-dependent translocase ABCB1 (Homo sapiens, UniProt P08183); test: ABCB1 efflux inhibitor potency, dose response, Jurkat-DNR cells, JC-1, flow cytometry, set 2 (AID 504569); assay type: functional; conditions: read-out: EC50_MICROM_;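 note: potency of pump inhibitors that raise cellular JC-1 green fluorescence up to the nicardipine level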
T9 sequence (P08183 whole entry): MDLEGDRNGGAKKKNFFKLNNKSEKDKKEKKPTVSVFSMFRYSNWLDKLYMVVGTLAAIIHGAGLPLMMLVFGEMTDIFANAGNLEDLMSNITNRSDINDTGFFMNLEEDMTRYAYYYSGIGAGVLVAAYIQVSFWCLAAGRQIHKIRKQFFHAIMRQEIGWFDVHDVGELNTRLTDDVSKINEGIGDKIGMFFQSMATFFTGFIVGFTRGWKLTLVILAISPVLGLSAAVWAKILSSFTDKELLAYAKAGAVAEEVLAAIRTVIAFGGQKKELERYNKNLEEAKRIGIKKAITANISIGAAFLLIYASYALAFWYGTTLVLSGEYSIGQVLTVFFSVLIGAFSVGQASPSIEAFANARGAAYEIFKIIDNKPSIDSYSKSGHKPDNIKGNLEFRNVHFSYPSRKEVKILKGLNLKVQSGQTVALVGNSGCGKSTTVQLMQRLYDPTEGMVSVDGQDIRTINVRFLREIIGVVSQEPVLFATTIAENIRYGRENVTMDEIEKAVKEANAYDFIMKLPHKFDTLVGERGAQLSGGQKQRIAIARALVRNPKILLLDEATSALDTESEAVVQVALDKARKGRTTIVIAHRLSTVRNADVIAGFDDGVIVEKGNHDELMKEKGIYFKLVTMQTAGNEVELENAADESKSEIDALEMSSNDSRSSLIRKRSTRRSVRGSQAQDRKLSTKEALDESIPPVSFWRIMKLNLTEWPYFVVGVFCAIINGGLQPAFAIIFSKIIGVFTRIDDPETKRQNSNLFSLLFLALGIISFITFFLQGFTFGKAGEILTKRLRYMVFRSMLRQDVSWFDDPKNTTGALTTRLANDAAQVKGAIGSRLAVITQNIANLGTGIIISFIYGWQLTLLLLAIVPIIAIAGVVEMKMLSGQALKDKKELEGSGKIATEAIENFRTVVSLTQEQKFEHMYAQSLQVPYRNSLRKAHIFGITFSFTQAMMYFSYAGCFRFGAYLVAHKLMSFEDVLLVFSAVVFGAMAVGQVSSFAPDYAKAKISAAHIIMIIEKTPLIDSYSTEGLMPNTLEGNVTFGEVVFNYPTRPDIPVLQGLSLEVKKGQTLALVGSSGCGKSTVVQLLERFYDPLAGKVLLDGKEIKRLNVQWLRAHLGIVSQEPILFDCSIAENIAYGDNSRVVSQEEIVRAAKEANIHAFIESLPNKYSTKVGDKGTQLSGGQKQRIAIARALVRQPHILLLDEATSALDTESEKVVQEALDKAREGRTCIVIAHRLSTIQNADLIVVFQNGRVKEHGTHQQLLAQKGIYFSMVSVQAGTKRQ

[24] = target: T9, ATP-dependent translocase ABCB1; test: ABCG2 efflux pump inhibitor potency, dose response, Ig-MXP3 cells, JC-1, flow cytometry, set 2 (AID 504566); assay type: functional; conditions: read-out: EC50_MICROM_;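 note: flow cytometry median green fluorescence of retained JC-1 dye; potency of efflux pump inhibition measured as rising substrate retention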
[25] = target: Testis-specific serine/threonine-protein kinase 2 (Homo sapiens, UniProt Q96PF2); assay type: functional;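 note: part of the Navigating the Kinome panel, target entry STK22B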
Sequence of Testis-specific serine/threonine-protein kinase 2 (Q96PF2 whole entry): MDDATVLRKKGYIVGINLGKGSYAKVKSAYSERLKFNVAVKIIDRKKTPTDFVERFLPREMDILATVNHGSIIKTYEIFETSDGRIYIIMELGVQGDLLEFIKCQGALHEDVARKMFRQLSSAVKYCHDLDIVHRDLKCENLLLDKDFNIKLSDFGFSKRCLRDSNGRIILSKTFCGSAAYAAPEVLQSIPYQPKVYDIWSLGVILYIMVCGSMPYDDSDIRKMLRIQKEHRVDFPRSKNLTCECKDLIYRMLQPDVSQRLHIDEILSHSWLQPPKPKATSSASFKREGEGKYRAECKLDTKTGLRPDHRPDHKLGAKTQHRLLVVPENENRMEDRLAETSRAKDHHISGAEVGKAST

COC(=O)c1c(NC(=O)CC2SC(N)=NC2=O)sc2c1CCC(C(C)(C)C)C2 (configuration not stated)
EC50 (Melanocortin receptor 4 [1]): > 89.2 µM (inactive)
CC50 [2]: > 40 µM (active)

COc1ccc(NS(=O)(=O)c2ccc(N3CCN(CCO)CC3)c([N+](=O)[O-])c2)cc1
IC50 (Protein Wnt-3a): 0.83 µM (active)

O=C(NNC(=O)c1cc2cc3ccccc3nc2s1)c1cccc(Cl)c1
IC50 [3]: 26.8 µM (inactive)
IC50 [4]: 8.67 µM (active)
AC50 (Cytochrome P450 2C9): 1.41 µM (inconclusive)
AC50 (Cytochrome P450 2C19): 5.01 µM (inconclusive)
IC50 [5]: 10.7 µM (active)
IC50 [6]: 1.9 µM (active)

CC(C)c1ccc(N2C(=O)/C(=C/NNC(=O)c3ccccc3O)C(=O)NC2=S)cc1
IC50 (Prothrombin): 48.4 µM (active)
EC50 [7]: 7.63 µM (active)
IC50 [8]: 52.9 µM (active)
IC50 [9]: 45.2 µM (active)
EC50 (Streptococcus): 7.21 µM (active)

O=C(CSc1nc2ccccc2c(=O)n1NC(=O)c1ccccc1)c1ccccc1
IC50 [10]: 0.513 µM (active)

Cn1c(=O)[nH]c(=O)c2c1nc(NCc1ccco1)n2Cc1ccccc1Cl
IC50 [11]: > 73.4 µM (inactive)

CC(C)(C)NC(=O)CSc1nc2ccc(NC(=O)CSc3nnc(N)s3)cc2s1
IC50 [12]: 18.4 µM (active)
IC50 [13]: 17.1 µM (inactive)
IC50 [14]: 1.54 µM (active)
IC50 [15]: > 99 µM (inactive)
IC50 [16]: 3.87 µM (active)
IC50 [17]: 6.68 µM (active)

O=C(O)c1ccc(NS(=O)(=O)c2ccc3c(c2)C(=O)c2ccccc2C3=O)cc1
IC50 [18]: 91.2 µM (inactive)

CCc1nc2ccc(C(=O)NCc3ccc4c(c3)OCO4)cn2c1N(CCC(C)C)CCN(C)C
IC50 (Melanocortin receptor 4 [19]): 11.5 µM (inactive)
IC50 [20]: > 64.6 µM (inactive)

CC1CCCC(C)N1C(=O)COC(=O)c1ccc([N+](=O)[O-])o1 (configuration not stated)
AC50 [21]: 95.7 µM (active)

O=C1CC2(CC(c3ccccc3Cl)=NO2)C(=O)N1c1ccc2ccccc2c1 (configuration not stated)
EC50 [22]: > 100 µM (inactive)

COc1ccc(/C=N/Nc2cc(C)nc(NS(=O)(=O)c3ccc(C)cc3)n2)cc1
IC50 (Melanocortin receptor 4 [19]): > 64.6 µM (inactive)
IC50 [20]: > 64.6 µM (inactive)

COc1ccc(-c2cc3nc(-c4ccccc4)cc(N4CCN(C(=O)c5ccccc5)CC4)n3n2)cc1
EC50 [23]: 0.69 µM (active)
EC50 [24]: 0.72 µM (active)

CC1CCN(C(=O)CC#N)CC1N(C)c1ncnc2[nH]ccc12 (configuration not stated)
Ki [25]: > 1.58 µM (inactive)
